Assay results published in PubChem BioAssay (NCI).
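Cells were grown in 96-well plates and exposed to each compound for 48 hours at five concentrations; endpoints were interpolated linearly between bracketing concentrations, or set to the highest concentration if not reached. The concentration for full growth arrest is given as TGI.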

How the values were obtained:
Test in all cases: DTP human tumour cell line panel, 48 h
CCRF-CEM leukemia = test system: CCRF-CEM leukemia
COLO 205 colon = test system: COLO 205 colon
NCI-H460 lung = test system: NCI-H460 lung
NCI-H226 lung = test system: NCI-H226 lung
UACC-257 melanoma = test system: UACC-257 melanoma
OVCAR-5 ovarian = test system: OVCAR-5 ovarian
SK-MEL-2 melanoma = test system: SK-MEL-2 melanoma
DU-145 prostate = test system: DU-145 prostate
NCI-H23 lung = test system: NCI-H23 lung
MCF7 breast = test system: MCF7 breast
CAKI-1 renal = test system: CAKI-1 renal
SNB-19 CNS = test system: SNB-19 CNS
UACC-62 melanoma = test system: UACC-62 melanoma
HT29 colon = test system: HT29 colon
HCT-116 colon = test system: HCT-116 colon
EKVX NSCLC = test system: EKVX NSCLC
SF-268 CNS = test system: SF-268 CNS
A498 renal = test system: A498 renal
SNB-75 CNS = test system: SNB-75 CNS
SF-539 CNS = test system: SF-539 CNS
SR leukemia = test system: SR leukemia
SK-MEL-28 melanoma = test system: SK-MEL-28 melanoma
OVCAR-3 ovarian = test system: OVCAR-3 ovarian
HOP-92 NSCLC = test system: HOP-92 NSCLC
MDA-MB-231 breast = test system: MDA-MB-231 breast
LOX IMVI melanoma = test system: LOX IMVI melanoma
RXF 393 renal = test system: RXF 393 renal
NCI/ADR-RES ovarian = test system: NCI/ADR-RES ovarian
SK-OV-3 ovarian = test system: SK-OV-3 ovarian
ACHN renal = test system: ACHN renal
TK-10 renal = test system: TK-10 renal
MDA-MB-435 = test system: MDA-MB-435
OVCAR-8 ovarian = test system: OVCAR-8 ovarian
HOP-62 NSCLC = test system: HOP-62 NSCLC
UO-31 renal = test system: UO-31 renal
K-562 leukemia = test system: K-562 leukemia
RPMI-8226 leukemia = test system: RPMI-8226 leukemia
SF-295 CNS = test system: SF-295 CNS
MDA-N = test system: MDA-N
786-0 renal = test system: 786-0 renal
U251 CNS = test system: U251 CNS
M14 melanoma = test system: M14 melanoma
PC-3 prostate = test system: PC-3 prostate
SW-620 colon = test system: SW-620 colon
IGROV1 ovarian = test system: IGROV1 ovarian
MOLT-4 leukemia = test system: MOLT-4 leukemia
HS 578T breast = test system: HS 578T breast
OVCAR-4 ovarian = test system: OVCAR-4 ovarian
KM12 colon = test system: KM12 colon
BT-549 breast = test system: BT-549 breast
HCT-15 colon = test system: HCT-15 colon
A549 NSCLC = test system: A549 NSCLC
SN12C renal = test system: SN12C renal
HCC-2998 colon = test system: HCC-2998 colon
HL-60(TB) leukemia = test system: HL-60(TB) leukemia
T-47D breast = test system: T-47D breast
MALME-3M melanoma = test system: MALME-3M melanoma
SK-MEL-5 melanoma = test system: SK-MEL-5 melanoma
NCI-H522 lung = test system: NCI-H522 lung

Measured: TGI

Cc1cn(CCCCOC(=O)NC(CCCN=C(N)N)C(=O)O)c(=O)[nH]c1=O (configuration not stated)
not listed: MALME-3M melanoma | SK-MEL-5 melanoma | NCI-H522 lung
> 100 µM: all other assays above

COc1ccc2[nH]c3c(c2c1)CCc1c(OC)cccc1-3
not listed: SF-539 CNS | RXF 393 renal | HL-60(TB) leukemia
> 100 µM: all other assays above
